Laboratory results taken from article PMC11826995, “Modulation of Protein–Protein Interactions with Molecular Glues in a Synthetic Condensate Platform” (Journal of the American Chemical Society, 2025).
pKd: −log10 of the molar value. Square brackets hold non-standard residues; d marks the D form. Peptide text beside a SMILES is read from it. * marks the point of attachment. X1 = CCN(CC)c1ccc2c(-c3ccc(NC(=S)*)cc3C(=O)[O-])c3ccc(=[N+](CC)CC)cc-3oc2c1; pS = N[C@@H](COP(=O)(O)O)C(=O)O; AEA = NCCOCC(=O)O

Tests used:
[1] = test system: 14-3-3γ/ERRγ interaction; set-up: method as in PMID 36926879; settings: cited from earlier work
[2] = molecular target: T1, 14-3-3γ/ERRγ interaction (Homo sapiens, UniProt P61981); assay: Split luciferase assay inside condensates; type: biochemical; settings: 250 pM LgBiT-ERRγ, 250 pM 14-3-3γ-SmBiT, 100 μM compound, 50 μM TCEP, overnight
T1 construct: made in house; host or cells: E. coli BL21(DE3)
T1 sequence (P61981 2-238 limits assumed): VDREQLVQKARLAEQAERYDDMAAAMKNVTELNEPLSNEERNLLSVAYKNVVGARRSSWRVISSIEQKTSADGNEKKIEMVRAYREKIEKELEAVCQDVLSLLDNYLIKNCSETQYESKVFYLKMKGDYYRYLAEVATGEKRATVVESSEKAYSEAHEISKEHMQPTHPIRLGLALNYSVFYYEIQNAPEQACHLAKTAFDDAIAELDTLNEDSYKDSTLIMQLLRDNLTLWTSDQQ

[3] = molecular target: 14-3-3σ/CIP2A interaction (Homo sapiens, UniProt P31947); assay: Confocal microscopy of CIP2A client recruitment to 14-3-3σ-loaded synthetic condensates; type: biochemical; settings: 100 nM CIP2A; for enhancement of CIP2A recruitment at 100 μM molecular glue: 100 μM compound
[4] = LC-MS assay for partitioning of small molecules between bulk and condensate phase; type: physicochemical; settings: 100 µM FC, 2 h equilibration
[5] = molecular target: T2, 14-3-3γ/ERRγ interaction (Homo sapiens, UniProt P61981); assay: Confocal microscopy of FITC-ERRγ recruitment to 14-3-3γ-loaded condensates; settings: 100 µM compound, 100 nM FITC-ERRγ
T2 sequence (P61981 1-247): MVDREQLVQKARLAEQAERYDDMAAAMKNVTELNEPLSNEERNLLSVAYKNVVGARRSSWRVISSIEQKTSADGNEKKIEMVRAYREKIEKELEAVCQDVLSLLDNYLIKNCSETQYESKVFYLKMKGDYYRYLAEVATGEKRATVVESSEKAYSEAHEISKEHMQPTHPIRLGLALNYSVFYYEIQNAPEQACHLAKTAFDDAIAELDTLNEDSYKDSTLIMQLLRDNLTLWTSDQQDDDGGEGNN

[6] = molecular target: 14-3-3γ/ERRγ (Homo sapiens, UniProt P61981); assay: pH-dependent fluorescence anisotropy titration of 14-3-3γ to FAM-labeled ERRγ peptide; type: binding; settings: 100 µM compound
Description: page 10: acetonitrile was used. […] Fluorescence anisotropy (FA) assays […] labeled peptides. […] (1 picture or pasted object on this page, not shown here) page 23: Table S5. […] compound R1. Data obtained from a fit using a four-parameter logistic model to determine KD or KDapp values as 95% confidence interval. The mean s were used for the calculation of the stabilization factor. pH DMSO: KD at 24 h (μM) Compound […] 24 h (μM) Stabilization factor […] 8.0 4.3-8.6 0.054-0.061 103 […] Figure S16. a) Schematic overview of mCherryEA structure and uptake into synthetic condensates. The […] 552 nm, with collection of emission between 562-700 nm in both settings . c) Confocal micrographs of condensates prepared at different pH (bulk pH values shown), with 500 nM of mCherryEA. Excitation was performed at 488 nm or 552 nm, with collection of emission between 562 -700 nm in both settings. d) Plot of the determined local pH values in the condensates relative to the buffer pH (bulk), as determined from the samples in pa nel c and the calibration curve. (1 picture or pasted object on this page, not shown here)

[7] = molecular target: T3, 14-3-3σ (Homo sapiens, UniProt P31947); assay: Fluorescence anisotropy protein titration of 14-3-3σ to HSPB6 peptide; type: binding
T3 sequence (P31947 1-248): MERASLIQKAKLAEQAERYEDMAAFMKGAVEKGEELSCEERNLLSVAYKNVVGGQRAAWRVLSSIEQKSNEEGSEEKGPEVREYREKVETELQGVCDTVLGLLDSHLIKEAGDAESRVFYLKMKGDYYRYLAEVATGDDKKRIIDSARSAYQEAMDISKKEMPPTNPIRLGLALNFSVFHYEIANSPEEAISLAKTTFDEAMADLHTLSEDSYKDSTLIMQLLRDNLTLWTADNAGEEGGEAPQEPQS

[8] = molecular target: apo 14-3-3σ; set-up: method as in PMID 30996864; settings: read-out: KD^II (intrinsic affinity for apo 14-3-3σ); cited from earlier work
[9] = molecular target: T4, 14-3-3σ/HSPB6 (Homo sapiens, UniProt P31947); assay: Competition of molecular glue with HSPB6 for 14-3-3σ binding in condensates (confocal microscopy); type: biochemical; settings: 14-3-3σ-loaded condensates with HSPB6, overnight
T4 sequence (P31947 1-248): T3 sequence (P31947 1-248)

[10] = molecular target: T5, PPARγ/EP300 (Homo sapiens, UniProt P37231); assay: Tesaglitazar-dependent recruitment of EP300 to PPARγ-loaded condensates; type: biochemical
T5 construct: made in house; host or cells: bacterial culture with IPTG induction
T5 sequence (P37231 238-503 limits assumed): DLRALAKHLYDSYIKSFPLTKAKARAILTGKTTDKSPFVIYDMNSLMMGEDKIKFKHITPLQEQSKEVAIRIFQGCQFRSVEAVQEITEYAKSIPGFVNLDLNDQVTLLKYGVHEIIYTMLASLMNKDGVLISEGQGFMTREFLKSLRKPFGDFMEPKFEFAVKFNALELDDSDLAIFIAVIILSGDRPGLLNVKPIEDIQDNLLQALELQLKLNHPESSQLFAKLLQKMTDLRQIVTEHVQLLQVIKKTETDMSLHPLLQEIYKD
Description: (§1) The dose dependence of the PPI formation was studied using tesaglitazar (Figures 6g, S24 and S25). Here, we found a significant effect in PPI stabilization in the condensates at 10 μM compound. […].

[11] = test system: PPARγ/PRIPRAP; assay: Fluorescence anisotropy titration of PPARγ to PRIPRAP peptide with PPAR ligands; type: binding; settings: FA, PPARγ titrated to PRIPRAP peptide
Description: to prevent aspecific hydrophobic interactions.
4-parameter logistic model . The resulting KD or KDapp obtained from the fit is shown as mean with the

[12] = molecular target: T6, PPARγ/PRIPRAP (Homo sapiens, UniProt P37231); assay: Confocal microscopy of PRIPRAP coregulator recruitment to PPARγ-loaded condensates; type: biochemical; settings: 100 nM PRIPRAP; for PRIPRAP recruitment to PPARγ-loaded condensates relative to DMSO control: 10 μM ligand, 400 nM PPARγ, overnight
T6 construct: made in house; host or cells: bacterial culture with IPTG induction

[13] = molecular target: T7, PPARγ/MED1 DRIP-2 (Homo sapiens, UniProt P37231); assay: Tesaglitazar-dependent recruitment of MED1 DRIP-2 to PPARγ-loaded condensates; type: biochemical
T7 construct: made in house; host or cells: bacterial culture with IPTG induction
T7 sequence (P37231 238-503 limits assumed): T5 sequence (P37231 238-503 limits assumed)
Description: as §1

[14] = Partitioning of autofluorescent chiglitazar into condensates by confocal fluorescence; type: physicochemical; settings: 10 µM, intensity inside condensates versus dilute solution
[15] = molecular target: T8, PPARγ/PRIPRAP (Homo sapiens, UniProt P37231); assay: Confocal microscopy of PRIPRAP coregulator recruitment to PPARγ-loaded condensates; type: biochemical; settings: GW9662 10 μM + tesaglitazar 10 μM
T8 construct: made in house; host or cells: bacterial culture with IPTG induction
T8 sequence (P37231 235-505): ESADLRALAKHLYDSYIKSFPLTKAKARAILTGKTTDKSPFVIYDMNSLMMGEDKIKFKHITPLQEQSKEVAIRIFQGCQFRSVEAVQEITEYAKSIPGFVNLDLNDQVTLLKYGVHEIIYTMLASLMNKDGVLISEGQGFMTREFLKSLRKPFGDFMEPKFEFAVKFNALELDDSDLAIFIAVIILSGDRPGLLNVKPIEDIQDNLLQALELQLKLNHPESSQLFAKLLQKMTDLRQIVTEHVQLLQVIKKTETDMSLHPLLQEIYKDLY

With CN(C)CCSSCCN(C)C(=O)c1cc(Br)cc(C=O)c1 [Compound R3] as the compound, how does the “SF100μM (stabilization factor at 100 μM compound concentration)” value (from here on “SF100μM”) [1] read?
Its value is 37.

And the “bioluminescence signal in split luciferase assay inside condensates” value (shortened to “bioluminescence signal”) [2]?
Its value is “significantly enhanced bioluminescence signal”.

For CN(C)CCN(C)C(=O)c1ccc(C=O)c(F)c1 [Compound R5], which “SF100μM” value [1] is on record?
The value was 1.

What about the “bioluminescence signal” value [2] of the same compound?
Its value is “no change in the bioluminescence”.

With C=CC(C)(C)OC[C@H]1O[C@H](O[C@@H]2C3=C([C@H](C)CN4CCCCC4)C[C@H](O)[C@]3(C)/C=C3/[C@@H](COC)CC[C@H]3[C@@H](C)[C@H]2O)[C@H](O)[C@@H](O)[C@@H]1O [FC-31] as the compound, how does the “enhancement of CIP2A recruitment at 100 μM molecular glue” value (from here on “enhancement of CIP2A recruitment”) [3] read?
Its value is “significant enhancement of CIP2A recruitment”.

What does the source list for CN(C)CCSSCCN(C)C(=O)c1ccc(C=O)cc1 [Compound R2]?
SF100μM (stabilization factor at 100 μM compound concentration) [1]: 10; bioluminescence signal in split luciferase assay inside condensates [2]: significantly enhanced bioluminescence signal

For C=CC(C)(C)OCC1OC(OC2C3=C(C(C)COC(C)=O)CC(O)C3(C)C=C3C(COC)CCC3C(C)C2O)C(O)C(O)C1O (stereo not shown) [FC, Fusicoccin A], which “partitioning coefficient to the condensate phase” value [4] is on record?
The value was 0.96 ± 0.02.

For C=CC(C)(C)OC[C@H]1O[C@H](O[C@@H]2C3=C(C(C)C)C[C@H](O)[C@]3(C)/C=C3/[C@@H](COC)CC[C@H]3[C@@H](C)[C@H]2O)[C@H](O)[C@@H](O)[C@@H]1O [FC-J], which “enhancement of CIP2A recruitment” value [3] is on record?
The value was “differentiated performance between the FA assay and the condensates”.

With CN(C)CCSSCCN(C)C(=O)c1cccc(C=O)c1 [Compound R1] as the compound, how does the “SF100μM” value [1] read?
Its value is 21.

And the “ERRγ recruitment to condensates over time” value [5]?
Its value is “reacts over time to yield ERRy recruitment”.

And the Stabilization factor ([6]; pH 6.5, 24 h)?
Its Stabilization factor is 3.

And the Stabilization factor ([6]; pH 7.0, 24 h)?
The Stabilization factor was 8.

And the Stabilization factor ([6]; pH 7.5, 24 h)?
The Stabilization factor was 40.

And the Stabilization factor ([6]; pH 8.0, 24 h)?
Its Stabilization factor is 103.

And the Stabilization factor ([6]; pH 8.5, 24 h)?
Its Stabilization factor is 152.

And the “bioluminescence signal” value [2]?
Its value is “significantly enhanced bioluminescence signal”.

Which “fold lower KD for 14-3-3σ than CIP2A in dilute solution” value [7] does the source give for CCN(CC)c1ccc2c(-c3ccc(NC(=S)NCCOCC(=O)N[C@@H](Cc4c[nH]c5ccccc45)C(=O)N[C@@H](CC(C)C)C(=O)N[C@@H](CCCNC(=N)N)C(=O)N[C@@H](CCCNC(=N)N)C(=O)N[C@@H](C)C(=O)N[C@@H](COP(=O)(O)O)C(=O)N[C@@H](C)C(=O)N4CCC[C@H]4C(=O)N[C@@H](CC(C)C)C(=O)N4CCC[C@H]4C(=O)NCC(=O)N[C@@H](CC(C)C)C(=O)N[C@@H](CO)C(=O)N[C@@H](C)C(=O)N4CCC[C@H]4C(N)=O)cc3C(=O)[O-])c3ccc(=[N+](CC)CC)cc-3oc2c1 [HSPB6] ({X1-AEA}-WLRRA[pS]APLPGLSAP-NH2; C-terminus assumed) here?
Its value is over 10 fold.

Which results are given for C=CC(C)(C)OC[C@H]1O[C@H](O[C@@H]2C3=C([C@H](C)CNC(C)=O)C[C@H](O)[C@]3(C)/C=C3/[C@@H](COC)CC[C@H]3[C@@H](C)[C@H]2O)[C@H](O)[C@@H](O)[C@@H]1O [FC-NAc]?
enhancement of recruitment of CIP2A at 1 μM molecular glue ([3]; 1 μM compound): significant enhancement of recruitment; pKd [8]: 5.00; competition with HSPB6 for 14-3-3 binding in condensates [9]: significant competition with HSPB6

With CN(C)CCSSCCN(C)C(=O)c1cccc(F)c1 [Compound R4] as the compound, how does the “SF100μM” value [1] read?
The value was 5.

With COCC1CCC2C1=CC1(C)C(=C(C(C)C)C3CCOC31)C(OC1OC3COC(C)(C)OC3C(O)C1O)C(O)C2C (stereo not shown) [FC-THF] as the compound, how does the “enhancement of CIP2A recruitment” value [3] read?
The value was “significant enhancement of CIP2A recruitment”.

Which “ligand-mediated stabilization of PPARγ/EP300 in condensates” value [10] does the source give for CCO[C@@H](Cc1ccc(OCCc2ccc(OS(C)(=O)=O)cc2)cc1)C(=O)O [Tesaglitazar] here?
The value was “ligand-mediated stabilization of the PPI was observed”.

And the “SF100 μM (stabilization factor, fold change in KD^app in the presence of the compound)” value [11]?
The value was 19.

What about the “PRIPRAP recruitment to PPARγ-loaded condensates relative to DMSO control” value [12] of the same compound?
Its value is “significant recruitment of PRIPRAP”.

And the “compound concentration with significant effect in PPI stabilization in the condensates” value ([12]; dose dependence)?
Its value is 10 µM.

And the “ligand-mediated stabilization of PPARγ/MED1 DRIP-2 in condensates” value [13]?
Its value is “ligand-mediated stabilization of the PPI was observed”.

With chiglitazar as the compound, how does the partitioning coefficient [14] read?
Its partitioning coefficient is 23 ± 4.

For O=C(Nc1ccccc1)c1cc([N+](=O)[O-])ccc1Cl [GW9662], which “effect of antagonist in codosing with tesaglitazar on PRIPRAP recruitment” value [15] is on record?
The value was “inhibited the stabilizing effect of tesaglitazar”.

And the “PRIPRAP recruitment to PPARγ-loaded condensates relative to DMSO control” value [12]?
Its value is “did not influence PRIPRAP recruitment”.
